Measurements from paper PMC10305181, “A VEGFB-Based Peptidomimetic Inhibits VEGFR2-Mediated PI3K/Akt/mTOR and PLCγ/ERK Signaling and Elicits Apoptotic, Antiangiogenic, and Antitumor Activities” (Pharmaceuticals, 2023).
Bridge positions count the residues as written; N and C are the ends. Peptide text beside a SMILES is read from it.

How the values were obtained:
[1] = test system: HUVECs; experiment: TUNEL assay, HUVECs; type: cell-based, human; details: 0.40 μM, n = 3, p < 0.0001
From the text: Periodic boundary conditions were used, and bonds were restrained by applying the LINCS algorithm to their equilibrium position. Initial structures were solvated with three-point model water molecules in a cubic box of 1.0 nm to fully cover the protein system in water, following periodic boundary conditions (PBC). The produced system for each peptide was neutralized through the “genion tool” plugin of the GROMACS package by adding ions Na+ and Cl−. Then, the system was minimized for 50000 iterations using the steepest descent (SD) algorithm and using velocity rescaling (modiﬁed Berendsen) temperature coupling and Parrinello-Rahman pressure coupling methods, simulated under an isothermal-isobaric ensemble (NPT) for 5 ns at a constant temperature, the pressure of 300 K, and 1 atm, respectively. The NVT and NPT equilibration was carried out for 50000 steps. The minimization and equilibration procedures were executed, and finally, one system of the peptide was subjected to a 200 ns production run of MD simulations utilizing 2 fs as the time step and coordinates of all atoms were recorded in the form of .trr GROMACS trajectory ﬁle every 10 ps.
2 × 10^3 HUVE or 4T1 cells were cultured in DMEM and RPMI-1640 media, respectively, supplemented with 10% (v/v) FBS overnight. Then, the cells were incubated in the media supplemented with 5% FBS, with PBS or C-VGB3 (0.40 μM). […]

[2] = test system: ectodomain of VEGFR1; details: ref [9], cited from earlier work
Procedure: Our previous study has shown that a peptide reproducing helix α1 of VEGFB can unexpectedly interfere with VEGF binding to VEGFR2 and, consequently, inhibit VEGF-stimulated angiogenesis and tumor growth. In the present study, we extend this observation using another peptide (C-VGB3) that mimics loop2 and its adjacent region of VEGFB. […] For instance, competitive binding of C-VGB3 (100 μM) with biotinyl ...

[3] = test system: signaling proteins in HUVECs; experiment: Western blot analysis, HUVECs; type: cell-based, human; details: 0.40 μM
Procedure: Next, to explore the mechanisms of the antiangiogenic property of C-VGB3, canonical signaling pathways mediated by VEGFR2 were assessed in HUVECs after 24 h incubation with C-VGB3 (0.40 μM). The binding of VEGF to VEGFR2 causes autophosphorylation of its tyrosine kinase domain and increases the receptor′s expression level on the cell surface. Therefore, we evaluated the ability of C-VGB3 to suppress the levels of constitutive and phosphorylated VEGFR2 in HUVECs.
The levels of signaling proteins were investigated by the Western blot assay. 4T1 and HUVE cells stimulated by VEGF (20 ng·mL^−1) were treated with (0.40 μM) or without C-VGB3 (treatment and control groups, respectively) after starvation in a serum-free medium for 24 h. After washing with PBS buffer twice, the cells were treated with RIPA lysis buffer containing (Sigma, St. Louis, MO, USA). Bradford′s test was performed to estimate the protein concentration. Equal amounts of total protein were electrophoresed on a 10% SDS-polyacrylamide gel, separated, and then transferred to a nitrocellulose membrane. Nitrocellulose was soaked in a blocking buffer containing 5% dry milk, Tris-buffered saline, and Tween 20 (TBST) for 1 h at ambient temperature. The nitrocellulose membrane was then washed with wash buffer and treated with antibodies against VEGFR2 p-VEGFR2, AKT, p-AKT, PI3K, mTOR, p-mTOR, NF-κB, p-NFκB, P53, MDM2, Bax, Bcl2, Bid, Bim, Apaf-1, cytochrome c, caspase-9, Fas (CD95), DR4 (CD261), DR5 (CD262), caspase3, caspase7, caspase8, PARP1, ERK 1/2, p-ERK1/2, Ras, Raf, Cdk4, GSK-3β, cyclin D1, vimentin, N-cadherin, E-cadherin, FAK, p-FAK, paxillin, p-paxillin, and β-actin overnight at 4 °C. The next steps were performed as described previously. Because molecular weight ranges of target signaling proteins are very close, individual gels were run for separate signaling proteins (Figure S7).

Question: Which TUNEL fluorescent labeling [1] does the source give for `CC(C)C[C@@H]1NC(=O)CNC(=O)[C@H](CC(=O)O)NC(=O)[C@H](CC(=O)O)NC(=O)[C@@H]2CCCN2C(=O)[C@@H]2CCCN2C(=O)[C@H](CCCNC(=N)N)NC(=O)[C@@H](NC(=O)[C@@H](N)CCC(=O)O)CSSC[C@@H](C(=O)O)NC1=O` [C-VGB3] (H-ECRPPDDGLC-OH; disulfide 2-10) here?
Answer: The TUNEL fluorescent labeling was “fluorescent-labeled more than control cells”.

Question: And the “displacement of btVEGF165” value ([2]; 100 μM, ectodomain of VEGFR1)?
Answer: Its value is 63%.

Question: What about the “binding to VEGFR1” value [2] of the same molecule?
Answer: Its value is “bind and neutralize VEGFR1”.

Question: What about the AKT level ([3]; 24 h, p < 0.0001) of the same molecule?
Answer: The AKT level was “markedly reduced”.

Question: What about the CDK4 level ([3]; 24 h, p < 0.0001) of the same molecule?
Answer: Its CDK4 level is “decreased”.

Question: What about the RAS level ([3]; 24 h, p < 0.0001) of the same molecule?
Answer: The RAS level was “decreased”.

Question: What about the mTOR total expression ([3]; 24 h, p < 0.0001) of the same molecule?
Answer: The mTOR total expression was “strongly suppressed”.

Question: What about the p-AKT level ([3]; 24 h, p < 0.0001) of the same molecule?
Answer: Its p-AKT level is “markedly reduced”.

Question: What about the p-VEGFR2 formation ([3]; 24 h, p < 0.0001) of the same molecule?
Answer: Its p-VEGFR2 formation is “markedly inhibited”.

Question: What about the CyclinD1 level ([3]; 24 h, p = 0.0001) of the same molecule?
Answer: The CyclinD1 level was “decreased”.

Question: What about the p-ERK1/2 level ([3]; 24 h, p = 0.0001) of the same molecule?
Answer: Its p-ERK1/2 level is “decreased”.

Question: What about the GSK3 expression ([3]; 24 h, p = 0.001) of the same molecule?
Answer: The GSK3 expression was “increased expression”.

Question: What about the NF-κB phosphorylation ([3]; 24 h, p = 0.001) of the same molecule?
Answer: Its NF-κB phosphorylation is “suppressed”.

Question: And the PI3K expression level ([3]; 24 h, p = 0.001)?
Answer: The PI3K expression level was “decreased”.

Question: What about the RAF level ([3]; 24 h, p = 0.001) of the same molecule?
Answer: The RAF level was “decreased”.

Question: And the VEGFR2 level ([3]; 24 h, p = 0.001)?
Answer: The VEGFR2 level was “markedly inhibited”.

Question: What about the mTOR phosphorylation ([3]; 24 h, p = 0.001) of the same molecule?
Answer: Its mTOR phosphorylation is “strongly suppressed”.

Question: And the ERK1/2 level ([3]; 24 h, p = 0.02)?
Answer: Its ERK1/2 level is “decreased”.

Question: And the NF-κB expression ([3]; 24 h, p = 0.02)?
Answer: Its NF-κB expression is “decreased”.

Question: What about the “increase in cleaved PARP1” value ([3]; HUVECs (first of 'respectively'), p < 0.0001) of the same molecule?
Answer: Its value is 3.50 fold.

Question: And the “increase in Bax/Bcl2 ratio” value ([3]; HUVECs)?
Answer: Its value is “approximately 3.35 fold”.

Question: What about the “increased level of cleaved caspase-3” value ([3]; HUVECs) of the same molecule?
Answer: The value was 3.8 times.

Question: And the “increased level of cleaved caspase-7” value ([3]; HUVECs)?
Answer: Its value is 3.3 times.

Question: What about the “increased level of cleaved caspase-9” value ([3]; HUVECs) of the same molecule?
Answer: The value was 1.4 times.

Question: What about the Bid expression level ([3]; HUVECs, p < 0.0001) of the same molecule?
Answer: Its Bid expression level is “increased”.

Question: What about the Apaf1 ([3]; HUVECs, p = 0.0001) of the same molecule?
Answer: Its Apaf1 is “increase”.

Question: And the Bax level ([3]; HUVECs, p = 0.0001)?
Answer: The Bax level was “increased”.

Question: And the Bcl2 expression ([3]; HUVECs, p = 0.0001)?
Answer: The Bcl2 expression was “decrease”.

Question: And the P53 level ([3]; HUVECs, p = 0.0001)?
Answer: The P53 level was “enormously increased”.

Question: What about the Bim level ([3]; HUVECs, p = 0.001) of the same molecule?
Answer: Its Bim level is “increased”.

Question: And the DR4 level ([3]; HUVECs, p = 0.001)?
Answer: The DR4 level was “increase”.

Question: And the MDM2 level ([3]; HUVECs, p = 0.001)?
Answer: The MDM2 level was “markedly decreased”.

Question: And the DR5 level ([3]; HUVECs, p = 0.02)?
Answer: The DR5 level was “increase”.

Question: And the Fas expression ([3]; HUVECs, p = 0.02)?
Answer: The Fas expression was “slightly increased”.

Question: And the cytochrome c ([3]; HUVECs, p = 0.02)?
Answer: The cytochrome c was “increase”.
